Consider ten molecules from ChEMBL document CHEMBL1800031, “Gold(III) chloride catalyzed regioselective synthesis of pyrano[3,4-b]indol-1(9H)-ones and evaluation of anticancer potential towards human cervix adenocarcinoma” (Bioorg Med Chem Lett, 2011).

In this assay the test system is HeLa. Put plainly: Cytotoxicity against human HeLa cells after 48 hrs by MTT assay. Type of assay: functional, cell-based. A general note: Formazan colour is commonly taken as a measure of viable cells.
Turning to `Cn1c2ccccc2c2cc(-c3ccccc3)oc(=O)c21`, the IC50 was determined as 1900 nM. That is a single-digit micromolar value.

The molecule `COc1ccc2c(c1)c1cc(-c3ccccc3)oc(=O)c1n2C` returned an IC50 of 220 nM.

Turning to `CCn1c2ccccc2c2cc(-c3ccccc3)oc(=O)c21`, the IC50 amounted to 11300 nM. Compared with the last molecule, the IC50 is about 51-fold higher.

`CCCCn1c2ccc(OC)cc2c2cc(-c3ccccc3)oc(=O)c21` had an IC50 of 5000 nM.

In the case of `COc1ccc2c(c1)c1cc(-c3ccccc3)oc(=O)c1n2Cc1ccccc1`, the IC50 came out at 6700 nM.

With `CCCCc1cc2c([nH]c3ccccc32)c(=O)o1`, the midpoint of inhibition, the IC50, lay at 2600 nM. This IC50 lies about 2.6-fold lower than the previous one.

For the molecule `CCn1c2ccc(OC)cc2c2cc(-c3ccccc3)oc(=O)c21`, half-maximal inhibition (IC50) was put at 1200 nM.

Molecule `O=c1oc(-c2ccccc2)cc2c1[nH]c1ccccc12` gave an IC50 of 19100 nM.

In the case of `CCCCn1c2ccccc2c2cc(-c3ccccc3)oc(=O)c21`, the IC50 amounted to 3200 nM.

Molecule `COc1ccc2[nH]c3c(=O)oc(-c4ccccc4)cc3c2c1` showed an IC50 of 330 nM. This IC50 is about 9.7-fold lower than that of the molecule before.

As a reminder, the IC50 is the concentration that inhibits the measured activity by half. Low readings indicate higher potency, high ones lower potency.
